Like-named read-outs stand apart in the source and are kept apart here.
How the values were obtained:
AR T878A = target: T1, AR T878A (Homo sapiens, UniProt P10275, T878A); assay: cell-based; assay type: cell-based
T1 construct: LNCaP cells expressing AR T878A; endogenous in cells; host or cells: LNCaP-luc (LNCaP stably carrying the Cignal Lenti AR Reporter)
T1 sequence (P10275 1-920 T878A): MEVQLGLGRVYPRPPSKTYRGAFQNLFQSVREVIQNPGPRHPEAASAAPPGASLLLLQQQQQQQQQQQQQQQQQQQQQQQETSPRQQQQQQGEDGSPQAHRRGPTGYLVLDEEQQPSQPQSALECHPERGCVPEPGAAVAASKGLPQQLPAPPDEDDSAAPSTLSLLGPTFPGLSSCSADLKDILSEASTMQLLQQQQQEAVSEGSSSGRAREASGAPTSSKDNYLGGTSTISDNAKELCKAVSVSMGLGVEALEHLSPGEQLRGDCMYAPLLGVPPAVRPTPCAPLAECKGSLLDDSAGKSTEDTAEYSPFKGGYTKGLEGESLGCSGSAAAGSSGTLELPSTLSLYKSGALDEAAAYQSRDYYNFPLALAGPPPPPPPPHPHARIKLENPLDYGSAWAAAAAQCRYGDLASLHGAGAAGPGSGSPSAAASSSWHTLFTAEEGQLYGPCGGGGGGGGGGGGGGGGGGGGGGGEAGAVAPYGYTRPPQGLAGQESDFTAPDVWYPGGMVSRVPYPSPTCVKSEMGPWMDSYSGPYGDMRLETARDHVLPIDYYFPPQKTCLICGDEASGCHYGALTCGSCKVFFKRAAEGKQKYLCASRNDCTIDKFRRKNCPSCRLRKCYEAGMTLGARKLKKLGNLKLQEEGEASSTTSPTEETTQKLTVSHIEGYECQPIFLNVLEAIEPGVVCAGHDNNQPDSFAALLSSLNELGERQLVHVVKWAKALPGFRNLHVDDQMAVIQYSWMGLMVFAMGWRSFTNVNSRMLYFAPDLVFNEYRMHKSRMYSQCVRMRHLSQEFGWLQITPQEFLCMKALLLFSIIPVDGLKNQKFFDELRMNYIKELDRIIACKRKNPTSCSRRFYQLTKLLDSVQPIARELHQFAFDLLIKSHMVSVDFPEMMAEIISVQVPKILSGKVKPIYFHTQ
Description: We generated a LNCaP cell line stably expressing luciferase controlled by androgen response elements (ARE-luciferase).
Cell Culture and Treatments. The LNCaP cell line were obtained from ATCC, cultured in RPMI1640 (Corning) supplemented with 10% heat-inactivated GemCell bovine serum (Gemini Bio-Products) and Penicillin-Streptomycin (Gemini Bio-Products). Cell lines stably expressing ARE-luciferase (LNCaP-luc) was generated using Cignal Lenti AR Reporter (Qiagen) and was continuously cultured with 500 ng/mL Puromycin (Gibco) for positive selection. Cells were maintained at 37° C. in a humidified incubator with 5% carbon dioxide. All cell lines were authenticated using NIST approved short tandem repeat (STR) DNA profiling performed by the University of Arizona Genetics Core and routinely tested negative for mycoplasma.
Luciferase assay. LNCaP-luc cells were seeded in clear flat bottom white polystyrene 96-well plates (Corning) at a density of 12,000 cells/well. […] Dose-response curves were fit using the delta method and t-distribution (n=1). Compounds are tested up to 10 μM.

AR = target: T2, AR (Rattus norvegicus, UniProt P15207); assay: AR binding, PolarScreen AR Competitor Assay (fluorescence polarization)
T2 construct: purchased Thermo Fisher Scientific
T2 sequence (P15207 646-902 limits assumed): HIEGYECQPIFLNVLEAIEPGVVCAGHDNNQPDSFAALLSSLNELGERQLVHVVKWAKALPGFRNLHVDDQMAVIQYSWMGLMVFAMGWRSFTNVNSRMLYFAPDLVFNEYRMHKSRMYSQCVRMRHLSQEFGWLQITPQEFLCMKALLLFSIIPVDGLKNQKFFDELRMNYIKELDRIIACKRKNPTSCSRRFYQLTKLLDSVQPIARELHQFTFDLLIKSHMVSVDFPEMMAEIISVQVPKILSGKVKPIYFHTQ
Protocol: AR Binding. Ligand binding was analyzed using the PolarScreen AR Competitor Assay Kit, Green, according to the manufacturer's instructions (Thermo Fisher Scientific). Fluorescence polarization was measured after a 4-h incubation using an EnVision 2103 Multilabel Plate Reader (PerkinElmer).

VCaP cells = assay: VCaP viability assay (CellTiter-Glo); assay type: cell-based; conditions: Homo sapiens, VCaP
Protocol: PC3 and VCaP cell lines were obtained from ATCC and cultured as recommended. Generation and culture of PC3 GFP-AR cells were described previously (14). ARE-luciferase cells were generated using Cignal Lenti AR Reporter (Qiagen). Cell lines were authenticated using NIST-approved short tandem repeat DNA profiling and tested negative for mycoplasma. Drug treatments were conducted after overnight culture in phenol red-free media supplemented with charcoal:dextran stripped FBS.
Luminometer Assays. For ARE-luciferase, luciferase substrate was added to lysed cells after 24-h treatment. For viability, cells were lysed with CellTiter-Glo 3D Cell Viability Assay (Promega) after 6 d of treatment. Measurements were performed in 96-well plates (Corning) using a GloMax 96 Microplate Luminometer (Promega).

Molecule | ED50 (AR T878A) | Emax (AR T878A) | binding to AR in vitro, in words (AR) | IC50 (AR; printed inside the ED50 cell of Table 2, read-out: IC50 (No binding)) [µM] | IC50 (VCaP cells) [µM] | AR agonism / antagonism in LNCaP ARE-luciferase, in words (AR T878A) | EC50 (AR T878A) [µM] | Emax (AR T878A; LNCaP) [%]
3-(4-acetylpiperazin-1-yl)-N-((3aR,4R,5R,7R,7aS)-2-(4-cyano-3-(trifluoromethyl)phenyl)-4,7-dimethyl-1,3-dioxooctahydro-1H-4,7-epoxyisoindol-5-yl)propenamide [EITM-1716] | No binding (IC50 > 5 μM) | No binding | did not bind AR | > 5 |  |  |  | 
C[C@]12O[C@](C)(C[C@H]1NC(=O)c1c[nH]c3ccccc13)[C@H]1C(=O)N(c3ccc(C#N)c(C(F)(F)F)c3)C(=O)[C@H]12 [(R)-1720] |  |  |  |  | 0.16 |  |  | 
CC(=O)c1cc(C(=O)N[C@@H]2C[C@@]3(C)O[C@]2(C)[C@@H]2C(=O)N(c4ccc(C#N)c(C(F)(F)F)c4)C(=O)[C@@H]23)n[nH]1 [EITM-1703, 5-acetyl-N-((3aR,4R,5R,7R,7aS)-2-(4-cyano-3-(trifluoromethyl)phenyl)-4,7-dimethyl-1,3-dioxooctahydro-1H-4,7-epoxyisoindol-5-yl)-1H-pyrazole-3-carboxamide] |  |  |  |  |  | robust antagonistic activities without notable agonism | 1.7 | 20
CC(O)c1cc(C(=O)N[C@@H]2C[C@@]3(C)O[C@]2(C)[C@@H]2C(=O)N(c4ccc(C#N)c(C(F)(F)F)c4)C(=O)[C@@H]23)n[nH]1 (stereo partly drawn) [EITM-1704, N-((3aR,4R,5R,7R,7aS)-2-(4-cyano-3-(trifluoromethyl)phenyl)-4,7-dimethyl-1,3-dioxooctahydro-1H-4,7-epoxyisoindol-5-yl)-5-(1-hydroxyethyl)-1H-pyrazole-3-carboxamide] |  |  |  |  |  | robust antagonistic activities without notable agonism | 3.7 | 11
CCS(=O)(=O)N[C@@H]1C[C@@]2(C)O[C@]1(C)[C@@H]1C(=O)N(c3ccc(C#N)c(C(F)(F)F)c3F)C(=O)[C@@H]12 [EITM-1705, N-((3aR,4R,5R,7R,7aS)-2-(4-cyano-2-fluoro-3-(trifluoromethyl)phenyl)-4,7-dimethyl-1,3-dioxooctahydro-1H-4,7-epoxyisoindol-5-yl)ethanesulfonamide] | agonist | agonist |  |  |  | displayed notable AR agonism |  | 
C[C@]12O[C@](C)(C[C@H]1n1cc(CCO)nn1)[C@H]1C(=O)N(c3ccc(C#N)c(C(F)(F)F)c3)C(=O)[C@H]12 [EITM-1706, 4-((3aR,4R,5R,7R,7 aS)-5-(4-(2-hydroxyethyl)-1H-1,2,3-triazol-1-yl)-4,7-dimethyl-1,3-dioxooctahydro-2H-4,7-epoxyisoindol-2-yl)-2-(trifluoromethyl)benzonitrile] | No binding | No binding | did not bind to AR |  |  |  |  | 
CCS(=O)(=O)Nc1ccc2c(c1)C(=O)N(c1ccc(C#N)c(C(F)(F)F)c1)C2=O [EITM-1708, N-(2-(4-cyano-3-(trifluoromethyl)phenyl)-1,3-dioxoisoindolin-5-yl)ethanesulfonamide] | No binding | No binding | did not bind to AR |  |  |  |  | 
C[C@]12O[C@](C)(C[C@H]1NC(=O)c1n[nH]c3ccccc13)[C@H]1C(=O)N(c3ccc(C#N)c(C(F)(F)F)c3)C(=O)[C@H]12 [EITM-1709, N-((3aR,4R,5R,7R,7 aS)-2-(4-cyano-3-(trifluoromethyl)phenyl)-4,7-dimethyl-1,3-dioxooctahydro-1H-4,7-epoxyisoindol-5-yl)-1H-indazole-3-carboxamide] |  |  | appeared to accommodate |  |  |  | 0.328 | 1
C[C@]12O[C@](C)(C[C@H]1NC(=O)c1cc(-c3cccs3)[nH]n1)[C@H]1C(=O)N(c3ccc(C#N)c(C(F)(F)F)c3)C(=O)[C@H]12 [EITM-1710, N-((3aR,4R,5R,7R,7aS)-2-(4-cyano-3-(trifluoromethyl)phenyl)-4,7-dimethyl-1,3-dioxooctahydro-1H-4,7-epoxyisoindol-5-yl)-5-(thiophen-2-yl)-1H-pyrazole-3-carboxamide] |  |  | appeared to accommodate |  |  |  | 2.43 | 8
C[C@]12O[C@](C)(C[C@H]1NC(=O)c1cc(-c3ccco3)[nH]n1)[C@H]1C(=O)N(c3ccc(C#N)c(C(F)(F)F)c3)C(=O)[C@H]12 [EITM-1711, N-((3aR,4R,5R,7R,7 aS)-2-(4-cyano-3-(trifluoromethyl)phenyl)-4,7-dimethyl-1,3-dioxooctahydro-1H-4,7-epoxyisoindol-5-yl)-5-(furan-2-yl)-1H-pyrazole-3-carboxamide] |  |  | appeared to accommodate |  |  |  | 0.535 | 1
Cc1c(N2C(=O)[C@@H]3[C@H](C2=O)[C@@]2(C)C[C@@H](NC(=O)c4cc(C(C)O)[nH]n4)[C@]3(C)O2)ccc(C#N)c1C(F)(F)F (stereo partly drawn) [EITM-1712, N-((3aR,4R,5R,7R,7 aS)-2-(4-cyano-2-methyl-3-(trifluoromethyl)phenyl)-4,7-dimethyl-1,3-dioxooctahydro-1H-4,7-epoxyisoindol-5-yl)-5-(1-hydroxyethyl)-1H-pyrazole-3-carboxamide] |  |  |  |  |  | pure antagonists | 2.13 | 38
CC(=O)N1CCC(C(=O)N[C@@H]2C[C@@]3(C)O[C@]2(C)[C@@H]2C(=O)N(c4ccc(C#N)c(C(F)(F)F)c4)C(=O)[C@@H]23)CC1 [EITM-1717, 1-acetyl-N-((3aR,4R,5R,7R,7aS)-2-(4-cyano-3-(trifluoromethyl)phenyl)-4,7-dimethyl-1,3-dioxooctahydro-1H-4,7-epoxyisoindol-5-yl)piperidine-4-carboxamide] | No binding | No binding | did not bind AR |  |  |  |  | 

From patent US12552806B2, “Androgen receptor regulation by small molecule enantiomers” (University of Southern California, priority 2020, dated 2026)
